{"source": "the supplement of paper PMC9663587", "key": {"SHP099": {"compound": "CC1(CCN(CC1)C2=CN=C(C(=N2)N)C3=C(C(=CC=C3)Cl)Cl)N [SHP099]"}, "Vorinostat": {"compound": "O=C(CCCCCCC(=O)Nc1ccccc1)NO [Vorinostat]"}, "[1]": {"compound": "CCN1CCN(Cc2ccc(Nc3ncc(F)c(-c4cc(F)c5nc(C)n(C(C)C)c5c4)n3)nc2)CC1"}, "[2]": {"compound": "CCc1cnn2c(NCc3ccc[n+]([O-])c3)cc(N3CCCC[C@H]3CCO)nc12"}, "Paclitaxel": {"compound": "CC(=O)O[C@H]1C(=O)[C@@]2(C)[C@H]([C@H](OC(=O)c3ccccc3)[C@]3(O)C[C@H](OC(=O)[C@H](O)[C@@H](NC(=O)c4ccccc4)c4ccccc4)C(C)=C1C3(C)C)[C@]1(OC(C)=O)CO[C@@H]1C[C@@H]2O [Paclitaxel]"}, "BSJ-03-123": {"compound": "CC(=O)c1c(C)c2cnc(Nc3ccc(N4CCN(CCOCCOCCOCCNC(=O)COc5cccc6c5C(=O)N(C5CCC(=O)NC5=O)C6=O)CC4)cn3)nc2n(C2CCCC2)c1=O [BSJ-03-123]"}, "Buparlisib/NVP-BKM120": {"compound": "Nc1cc(C(F)(F)F)c(-c2cc(N3CCOCC3)nc(N3CCOCC3)n2)cn1 [Buparlisib/NVP-BKM120]"}, "AZD5363": {"compound": "NC1(C(=O)N[C@@H](CCO)c2ccc(Cl)cc2)CCN(c2nc[nH]c3nccc2-3)CC1 [AZD5363]"}, "Cabozantinib": {"compound": "COc1cc2nccc(Oc3ccc(NC(=O)C4(C(=O)Nc5ccc(F)cc5)CC4)cc3)c2cc1OC [Cabozantinib]"}, "[3]": {"compound": "CC(=O)c1c(C)c2cnc(Nc3ccc(N4CCNCC4)cn3)nc2n(C2CCCC2)c1=O", "test": "GR value, 72 h; higher = faster growth (1 = untreated, <0 = killing);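 further: breast cancer and non-malignant breast epithelial lines, nine half-log doses, viable cells counted by Hoechst and LIVE/DEAD dye imaging versus time-zero plates and DMSO controls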"}, "Flavopiridol": {"compound": "CN1CC[C@H](c2c(O)cc(O)c3c(=O)cc(-c4ccccc4Cl)oc23)[C@H](O)C1 [Flavopiridol]", "test": "GR value, 72 h; higher = faster growth (1 = untreated, <0 = killing)"}, "[4]": {"compound": "CCN1CCN(Cc2ccc(Nc3ncc(F)c(-c4cc(F)c5nc(C)n(C(C)C)c5c4)n3)nc2)CC1", "test": "GR value, 72 h; higher = faster growth (1 = untreated, <0 = killing)"}, "THZ531": {"compound": "CN(C)C/C=C/C(=O)Nc1ccc(C(=O)N2CCC[C@@H](Nc3ncc(Cl)c(-c4c[nH]c5ccccc45)n3)C2)cc1 [THZ531]", "test": "GR value, 72 h; higher = faster growth (1 = untreated, <0 = killing)"}, "YKL-5-124": {"compound": "C=CC(=O)Nc1ccc(C(=O)Nc2[nH]nc3c2CN(C(=O)N[C@H](CN(C)C)c2ccccc2)C3(C)C)cc1 [YKL-5-124]", "test": "GR value, 72 h; higher = faster growth (1 = untreated, <0 = killing)"}, "THZ1": {"compound": "CN(C)C/C=C/C(=O)Nc1ccc(C(=O)Nc2cccc(Nc3ncc(Cl)c(-c4c[nH]c5ccccc45)n3)c2)cc1 [THZ1]", "test": "GR value, 72 h; higher = faster growth (1 = untreated, <0 = killing)"}, "[5]": {"compound": "CCc1cnn2c(NCc3ccc[n+]([O-])c3)cc(N3CCCC[C@H]3CCO)nc12", "test": "GR value, 72 h; higher = faster growth (1 = untreated, <0 = killing)"}, "LEE011/Ribociclib": {"compound": "CN(C)C(=O)c1cc2cnc(Nc3ccc(N4CCNCC4)cn3)nc2n1C1CCCC1 [LEE011/Ribociclib]", "test": "GR value, 72 h; higher = faster growth (1 = untreated, <0 = killing)"}}}
{"cell line": "PDX1258", "values": [{"measurement": "GR50, 72 h", "setting": "SHP099", "value": "> 10", "unit": "µM"}, {"measurement": "GR50, 72 h", "setting": "Vorinostat", "value": 1.57, "unit": "µM"}, {"measurement": "GR50, 72 h", "setting": "[1]", "value": 0.674, "unit": "µM"}, {"measurement": "GR50, 72 h", "setting": "[2]", "value": 0.0116, "unit": "µM"}, {"measurement": "GR50, 72 h", "setting": "Paclitaxel", "value": 0.00215, "unit": "µM"}, {"measurement": "GR50, 72 h", "setting": "BSJ-03-123", "value": 4.91, "unit": "µM"}, {"measurement": "GR50, 72 h", "setting": "Buparlisib/NVP-BKM120", "value": 1.36, "unit": "µM"}, {"measurement": "GR50, 72 h", "setting": "AZD5363", "value": 3.52, "unit": "µM"}, {"measurement": "GR50, 72 h", "setting": "Cabozantinib", "value": 8.59, "unit": "µM"}, {"measurement": "GR value", "setting": "[3]; 0.0003162 µM", "value": 1.07, "unit": "GR"}, {"measurement": "GR value", "setting": "[3]; 0.001 µM", "value": 1.08, "unit": "GR"}, {"measurement": "GR value", "setting": "[3]; 0.003162 µM", "value": 1.11, "unit": "GR"}, {"measurement": "GR value", "setting": "[3]; 0.01 µM", "value": 1.12, "unit": "GR"}, {"measurement": "GR value", "setting": "[3]; 0.03162 µM", "value": 1.1, "unit": "GR"}, {"measurement": "GR value", "setting": "[3]; 0.1 µM", "value": 1.05, "unit": "GR"}, {"measurement": "GR value", "setting": "[3]; 0.3162 µM", "value": 1.09, "unit": "GR"}, {"measurement": "GR value", "setting": "[3]; 1 µM", "value": 1.09, "unit": "GR"}, {"measurement": "GR value", "setting": "[3]; 3.162 µM", "value": 0.993, "unit": "GR"}, {"measurement": "GR value", "setting": "Flavopiridol; 0.0001 µM", "value": 1.03, "unit": "GR"}, {"measurement": "GR value", "setting": "Flavopiridol; 0.0003162 µM", "value": 0.973, "unit": "GR"}, {"measurement": "GR value", "setting": "Flavopiridol; 0.001 µM", "value": 1.02, "unit": "GR"}, {"measurement": "GR value", "setting": "Flavopiridol; 0.003162 µM", "value": 1.07, "unit": "GR"}, {"measurement": "GR value", "setting": "Flavopiridol; 0.01 µM", "value": 1.18, "unit": "GR"}, {"measurement": "GR value", "setting": "Flavopiridol; 0.03162 µM", "value": 0.831, "unit": "GR"}, {"measurement": "GR value", "setting": "Flavopiridol; 0.1 µM", "value": 0.5, "unit": "GR"}, {"measurement": "GR value", "setting": "Flavopiridol; 0.3162 µM", "value": -0.24, "unit": "GR"}, {"measurement": "GR value", "setting": "Flavopiridol; 1 µM", "value": -0.402, "unit": "GR"}, {"measurement": "GR value", "setting": "[4]; 0.001 µM", "value": 1.06, "unit": "GR"}, {"measurement": "GR value", "setting": "[4]; 0.003162 µM", "value": 1.1, "unit": "GR"}, {"measurement": "GR value", "setting": "[4]; 0.01 µM", "value": 1.03, "unit": "GR"}, {"measurement": "GR value", "setting": "[4]; 0.03162 µM", "value": 0.961, "unit": "GR"}, {"measurement": "GR value", "setting": "[4]; 0.1 µM", "value": 0.911, "unit": "GR"}, {"measurement": "GR value", "setting": "[4]; 0.3162 µM", "value": 0.719, "unit": "GR"}, {"measurement": "GR value", "setting": "[4]; 1 µM", "value": 0.375, "unit": "GR"}, {"measurement": "GR value", "setting": "[4]; 3.162 µM", "value": -0.0697, "unit": "GR"}, {"measurement": "GR value", "setting": "[4]; 10 µM", "value": -0.334, "unit": "GR"}, {"measurement": "GR value", "setting": "THZ531; 0.0001 µM", "value": 0.889, "unit": "GR"}, {"measurement": "GR value", "setting": "THZ531; 0.0003162 µM", "value": 1.04, "unit": "GR"}, {"measurement": "GR value", "setting": "THZ531; 0.001 µM", "value": 0.96, "unit": "GR"}, {"measurement": "GR value", "setting": "THZ531; 0.003162 µM", "value": 1.07, "unit": "GR"}, {"measurement": "GR value", "setting": "THZ531; 0.01 µM", "value": 1.07, "unit": "GR"}, {"measurement": "GR value", "setting": "THZ531; 0.03162 µM", "value": 0.765, "unit": "GR"}, {"measurement": "GR value", "setting": "THZ531; 0.1 µM", "value": -0.303, "unit": "GR"}, {"measurement": "GR value", "setting": "THZ531; 0.3162 µM", "value": -0.601, "unit": "GR"}, {"measurement": "GR value", "setting": "THZ531; 1 µM", "value": -0.509, "unit": "GR"}, {"measurement": "GR value", "setting": "YKL-5-124; 0.001 µM", "value": 0.686, "unit": "GR"}, {"measurement": "GR value", "setting": "YKL-5-124; 0.003162 µM", "value": 0.363, "unit": "GR"}, {"measurement": "GR value", "setting": "YKL-5-124; 0.01 µM", "value": 0.231, "unit": "GR"}, {"measurement": "GR value", "setting": "YKL-5-124; 0.03162 µM", "value": 0.0382, "unit": "GR"}, {"measurement": "GR value", "setting": "YKL-5-124; 0.1 µM", "value": 0.0596, "unit": "GR"}, {"measurement": "GR value", "setting": "YKL-5-124; 0.3162 µM", "value": -0.0277, "unit": "GR"}, {"measurement": "GR value", "setting": "YKL-5-124; 1 µM", "value": -0.147, "unit": "GR"}, {"measurement": "GR value", "setting": "YKL-5-124; 3.162 µM", "value": -0.294, "unit": "GR"}, {"measurement": "GR value", "setting": "YKL-5-124; 10 µM", "value": -0.519, "unit": "GR"}, {"measurement": "GR value", "setting": "THZ1; 0.0001 µM", "value": 1.11, "unit": "GR"}, {"measurement": "GR value", "setting": "THZ1; 0.0003162 µM", "value": 1.16, "unit": "GR"}, {"measurement": "GR value", "setting": "THZ1; 0.001 µM", "value": 1.17, "unit": "GR"}, {"measurement": "GR value", "setting": "THZ1; 0.003162 µM", "value": 0.923, "unit": "GR"}, {"measurement": "GR value", "setting": "THZ1; 0.01 µM", "value": 0.918, "unit": "GR"}, {"measurement": "GR value", "setting": "THZ1; 0.03162 µM", "value": -0.295, "unit": "GR"}, {"measurement": "GR value", "setting": "THZ1; 0.1 µM", "value": -0.51, "unit": "GR"}, {"measurement": "GR value", "setting": "THZ1; 0.3162 µM", "value": -0.509, "unit": "GR"}, {"measurement": "GR value", "setting": "THZ1; 1 µM", "value": -0.665, "unit": "GR"}, {"measurement": "GR value", "setting": "[5]; 0.0001 µM", "value": 1.05, "unit": "GR"}, {"measurement": "GR value", "setting": "[5]; 0.0003162 µM", "value": 1.08, "unit": "GR"}, {"measurement": "GR value", "setting": "[5]; 0.001 µM", "value": 1.13, "unit": "GR"}, {"measurement": "GR value", "setting": "[5]; 0.003162 µM", "value": 1.08, "unit": "GR"}, {"measurement": "GR value", "setting": "[5]; 0.01 µM", "value": 0.655, "unit": "GR"}, {"measurement": "GR value", "setting": "[5]; 0.03162 µM", "value": -0.491, "unit": "GR"}, {"measurement": "GR value", "setting": "[5]; 0.1 µM", "value": -0.587, "unit": "GR"}, {"measurement": "GR value", "setting": "[5]; 0.3162 µM", "value": -0.579, "unit": "GR"}, {"measurement": "GR value", "setting": "[5]; 1 µM", "value": -0.628, "unit": "GR"}, {"measurement": "GR value", "setting": "LEE011/Ribociclib; 0.001 µM", "value": 1.11, "unit": "GR"}, {"measurement": "GR value", "setting": "LEE011/Ribociclib; 0.003162 µM", "value": 1.12, "unit": "GR"}, {"measurement": "GR value", "setting": "LEE011/Ribociclib; 0.01 µM", "value": 0.914, "unit": "GR"}, {"measurement": "GR value", "setting": "LEE011/Ribociclib; 0.03162 µM", "value": 1.18, "unit": "GR"}, {"measurement": "GR value", "setting": "LEE011/Ribociclib; 0.1 µM", "value": 1.19, "unit": "GR"}, {"measurement": "GR value", "setting": "LEE011/Ribociclib; 0.3162 µM", "value": 1.11, "unit": "GR"}, {"measurement": "GR value", "setting": "LEE011/Ribociclib; 1 µM", "value": 0.93, "unit": "GR"}, {"measurement": "GR value", "setting": "LEE011/Ribociclib; 3.162 µM", "value": 1.14, "unit": "GR"}, {"measurement": "GR value", "setting": "LEE011/Ribociclib; 10 µM", "value": 1.02, "unit": "GR"}]}
